Data from US20230150974A1 (Foghorn Therapeutics Inc., priority 2020, published 2023).

Experiments:
[1] = biological target: T1, HiBiT-BRM (Homo sapiens, UniProt P51531); assay: HiBiT-BRM cell-based degradation assay (Nano-Glo HiBiT Lytic Detection); conditions: HeLa cells expressing HiBiT-BRM, 24 h; for DC50: read-out: BRM HiBit Degradation IC50
T1 construct: expressed in transfected cells
Method in brief: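 Luminescence from HiBiT–LgBiT complementation in lysates of a stable HiBiT-BRM HeLa line measured after 24 h compound exposure. Degradation expressed as percent relative to DMSO-treated cells and cells given 2 μM of a known BRM/BRG1 degrader.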

[2] = biological target: T2, HiBit-BRG1 (Homo sapiens, UniProt P51532); assay: HiBit-BRG1 cell-based degradation assay (Nano-Glo HiBiT Lytic Detection); conditions: HeLa cells expressing HiBit-BRG1 and LgBit, 24 h; for DC50: read-out: BRG1 HiBit Degradation IC50; for Dmax: read-out: BRG1 HiBit Degradation Maximum (%)
T2 construct: expressed in transfected cells
Method in brief: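 Luminescence from Nano-Glo HiBiT lytic detection, read after 24 h compound exposure, scored degradation in a stable HeLa HiBiT-BRG1/LgBit line seeded at 5000 cells/well. DMSO wells defined 0% and 2 μM known BRM/BRG1 degrader wells defined full degradation.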

T1 sequence (P51531 whole entry): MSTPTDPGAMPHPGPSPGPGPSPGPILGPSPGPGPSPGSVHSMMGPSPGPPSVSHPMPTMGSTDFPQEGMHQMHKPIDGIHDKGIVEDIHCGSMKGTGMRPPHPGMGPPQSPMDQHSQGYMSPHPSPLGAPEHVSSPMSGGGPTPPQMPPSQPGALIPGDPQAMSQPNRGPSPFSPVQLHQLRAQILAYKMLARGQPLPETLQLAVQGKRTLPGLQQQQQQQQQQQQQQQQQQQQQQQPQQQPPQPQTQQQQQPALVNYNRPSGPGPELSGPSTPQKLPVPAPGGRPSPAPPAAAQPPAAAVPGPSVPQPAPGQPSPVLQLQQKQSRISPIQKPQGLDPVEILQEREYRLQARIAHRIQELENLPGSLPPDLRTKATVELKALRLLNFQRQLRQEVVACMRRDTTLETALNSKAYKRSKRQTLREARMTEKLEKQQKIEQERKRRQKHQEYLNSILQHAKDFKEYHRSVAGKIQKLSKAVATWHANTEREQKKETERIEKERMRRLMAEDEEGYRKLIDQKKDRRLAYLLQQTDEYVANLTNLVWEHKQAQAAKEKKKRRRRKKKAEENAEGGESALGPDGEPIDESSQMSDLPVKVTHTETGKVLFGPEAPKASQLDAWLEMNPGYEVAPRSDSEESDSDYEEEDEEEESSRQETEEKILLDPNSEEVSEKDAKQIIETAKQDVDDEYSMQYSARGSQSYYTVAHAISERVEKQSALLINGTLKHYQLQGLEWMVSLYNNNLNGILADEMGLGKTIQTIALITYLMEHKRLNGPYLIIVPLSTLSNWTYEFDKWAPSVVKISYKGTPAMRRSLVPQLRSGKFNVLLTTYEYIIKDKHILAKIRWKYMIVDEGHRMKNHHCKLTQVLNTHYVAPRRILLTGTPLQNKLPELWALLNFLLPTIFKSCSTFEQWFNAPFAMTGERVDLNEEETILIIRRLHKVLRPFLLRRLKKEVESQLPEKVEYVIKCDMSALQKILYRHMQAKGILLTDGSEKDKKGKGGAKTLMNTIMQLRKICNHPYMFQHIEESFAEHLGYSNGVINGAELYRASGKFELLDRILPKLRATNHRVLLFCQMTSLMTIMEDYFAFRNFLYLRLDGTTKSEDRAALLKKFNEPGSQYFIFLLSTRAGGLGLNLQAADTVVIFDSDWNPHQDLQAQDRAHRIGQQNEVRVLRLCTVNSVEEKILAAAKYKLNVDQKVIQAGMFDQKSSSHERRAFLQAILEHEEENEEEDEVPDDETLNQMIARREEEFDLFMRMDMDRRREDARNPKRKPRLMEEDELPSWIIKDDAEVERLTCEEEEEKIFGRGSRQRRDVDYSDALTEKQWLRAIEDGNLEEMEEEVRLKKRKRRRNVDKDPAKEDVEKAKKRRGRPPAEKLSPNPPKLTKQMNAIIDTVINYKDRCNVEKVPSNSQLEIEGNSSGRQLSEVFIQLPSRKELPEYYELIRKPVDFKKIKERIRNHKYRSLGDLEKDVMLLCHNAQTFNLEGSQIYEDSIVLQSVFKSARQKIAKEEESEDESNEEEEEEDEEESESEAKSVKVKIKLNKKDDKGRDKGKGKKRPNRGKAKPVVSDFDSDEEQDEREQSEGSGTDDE
T2 sequence (P51532 whole entry): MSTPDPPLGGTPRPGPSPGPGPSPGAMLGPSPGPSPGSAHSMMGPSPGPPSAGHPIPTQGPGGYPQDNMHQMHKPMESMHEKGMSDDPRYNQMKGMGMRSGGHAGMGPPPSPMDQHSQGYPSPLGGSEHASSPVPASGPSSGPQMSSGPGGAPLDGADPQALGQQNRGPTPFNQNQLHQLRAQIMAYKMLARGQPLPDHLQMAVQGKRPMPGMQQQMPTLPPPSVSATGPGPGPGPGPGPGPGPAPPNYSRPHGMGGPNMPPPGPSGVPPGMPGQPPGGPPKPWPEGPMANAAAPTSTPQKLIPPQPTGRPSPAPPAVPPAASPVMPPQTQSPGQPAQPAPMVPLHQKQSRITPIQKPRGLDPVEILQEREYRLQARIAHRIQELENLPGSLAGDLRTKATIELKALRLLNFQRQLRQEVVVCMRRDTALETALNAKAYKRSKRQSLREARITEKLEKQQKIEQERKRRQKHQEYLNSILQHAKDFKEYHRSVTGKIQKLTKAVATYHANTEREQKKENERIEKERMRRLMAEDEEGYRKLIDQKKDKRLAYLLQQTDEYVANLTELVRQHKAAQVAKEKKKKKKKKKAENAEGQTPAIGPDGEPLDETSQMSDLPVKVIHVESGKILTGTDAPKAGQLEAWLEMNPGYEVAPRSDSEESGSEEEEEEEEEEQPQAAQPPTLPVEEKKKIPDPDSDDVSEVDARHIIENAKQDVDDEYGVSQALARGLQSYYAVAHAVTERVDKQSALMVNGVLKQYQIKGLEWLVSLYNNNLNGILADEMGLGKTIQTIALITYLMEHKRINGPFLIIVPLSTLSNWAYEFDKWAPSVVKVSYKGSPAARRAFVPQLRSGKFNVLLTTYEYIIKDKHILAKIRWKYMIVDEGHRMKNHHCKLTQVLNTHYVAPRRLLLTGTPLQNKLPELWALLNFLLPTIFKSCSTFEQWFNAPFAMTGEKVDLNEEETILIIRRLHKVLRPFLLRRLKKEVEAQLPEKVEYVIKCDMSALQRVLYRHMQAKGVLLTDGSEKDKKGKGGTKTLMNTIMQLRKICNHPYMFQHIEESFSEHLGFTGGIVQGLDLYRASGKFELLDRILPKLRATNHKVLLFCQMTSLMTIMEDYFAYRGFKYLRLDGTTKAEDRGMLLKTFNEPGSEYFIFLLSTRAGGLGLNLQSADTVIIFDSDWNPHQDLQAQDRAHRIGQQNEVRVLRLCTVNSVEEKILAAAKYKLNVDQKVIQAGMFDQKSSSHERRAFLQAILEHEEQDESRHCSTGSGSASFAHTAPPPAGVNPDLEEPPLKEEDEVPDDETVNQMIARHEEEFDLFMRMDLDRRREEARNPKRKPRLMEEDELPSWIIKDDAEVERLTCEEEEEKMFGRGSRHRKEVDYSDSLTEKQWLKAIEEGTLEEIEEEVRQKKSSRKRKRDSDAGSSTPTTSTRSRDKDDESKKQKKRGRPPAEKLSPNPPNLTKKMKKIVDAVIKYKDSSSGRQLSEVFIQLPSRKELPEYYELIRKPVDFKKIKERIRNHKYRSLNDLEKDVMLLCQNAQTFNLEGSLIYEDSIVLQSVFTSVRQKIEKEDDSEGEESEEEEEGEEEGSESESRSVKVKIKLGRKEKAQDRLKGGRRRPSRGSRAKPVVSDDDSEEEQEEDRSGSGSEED

Row | SMILES | BRM HiBit Degradation Maximum (%) [1] | DC50 [1] | DC50 [2] | Dmax [2]
1 | Cc1ncsc1-c1ccc([C@H](C)NC(=O)[C@@H]2C[C@@H](O)CN2C(=O)[C@@H](NC(=O)CCCCCCCCCCCCCCNC(=O)c2ccc(CCOc3cc(-c4ccccc4O)nnc3N)cc2)C(C)(C)C)cc1 [Compound 254, (2S,4R)-1-((S)-2-(15-(4-(2-((3-amino-6-(2-hydroxyphenyl)pyridazin-4-yl)oxy)ethyl)benzamido)pentadecanamido)-3,3-dimethylbutanoyl)-4-hydroxy-N-((S)-1-(4-(4-methylthiazol-5-yl)phenyl)ethyl)pyrrolidine-2-carboxamide] | B (“B” indicates maximum degradation ≥50%) | > 10 nM | > 1000 nM | < 50%
2 | Cc1ncsc1-c1ccc([C@H](C)NC(=O)[C@@H]2C[C@@H](O)CN2C(=O)[C@@H](NC(=O)CCCCCCCCCCCCCC(=O)NCc2ccc(CCN(C)c3cc(-c4ccccc4O)nnc3N)cc2)C(C)(C)C)cc1 [Compound 255, N1-(4-(2-((3-amino-6-(2-hydroxyphenyl)pyridazin-4-yl)(methyl)amino)ethyl)benzyl)-N15-((S)-1-((2S,4R)-4-hydroxy-2-(((S)-1-(4-(4-methylthiazol-5-yl)phenyl)ethyl)carbamoyl)pyrrolidin-1-yl)-3,3-dimethyl-1-oxobutan-2-yl)pentadecanediamide] | A (“A” indicates maximum degradation ≥75%) | > 10 nM | > 1000 nM | < 50%
3 | Cc1ncsc1-c1ccc([C@H](C)NC(=O)[C@@H]2C[C@@H](O)CN2C(=O)[C@@H](NC(=O)CCNCCCCCCCCCCC(=O)NCc2ccc(CCOc3cc(-c4ccccc4O)nnc3N)cc2)C(C)(C)C)cc1 [Compound 256, (2S,4R)-1-((S)-2-(3-((11-((4-(2-((3-amino-6-(2-hydroxyphenyl)pyridazin-4-yl)oxy)ethyl)benzyl)amino)-11-oxoundecyl)amino)propanamido)-3,3-dimethylbutanoyl)-4-hydroxy-N-((S)-1-(4-(4-methylthiazol-5-yl)phenyl)ethyl)pyrrolidine-2-carboxamide] | C (“C” indicates maximum degradation <50%) | > 1000 nM | > 1000 nM | < 50%
4 | Cc1ncsc1-c1ccc([C@H](C)NC(=O)[C@@H]2C[C@@H](O)CN2C(=O)[C@@H](NC(=O)CCCCCCCCC(=O)NCc2ccc(CCOc3cc(-c4ccccc4O)nnc3N)cc2)C(C)(C)C)cc1 [Compound 257, N1-(4-(2-((3-amino-6-(2-hydroxyphenyl)pyridazin-4-yl)oxy)ethyl)benzyl)-N10-((S)-1-((2S,4R)-4-hydroxy-2-(((S)-1-(4-(4-methylthiazol-5-yl)phenyl)ethyl)carbamoyl)pyrrolidin-1-yl)-3,3-dimethyl-1-oxobutan-2-yl)decanediamide] | A (“A” indicates maximum degradation ≥75%) | > 10 nM | > 1000 nM | < 50%
5 | Cc1ncsc1-c1ccc([C@H](C)NC(=O)[C@@H]2C[C@@H](O)CN2C(=O)[C@@H](NC(=O)CN2CCC(OC3CCN(CCC(=O)NCc4ccc(CCOc5cc(-c6ccccc6O)nnc5N)cc4)CC3)CC2)C(C)(C)C)cc1 [Compound 258, (2S,4R)-1-((S)-2-(2-(4-((1-(3-((4-(2-((3-amino-6-(2-hydroxyphenyl)pyridazin-4-yl)oxy)ethyl)benzyl)amino)-3-oxopropyl)piperidin-4-yl)oxy)piperidin-1-yl)acetamido)-3,3-dimethylbutanoyl)-4-hydroxy-N-((S)-1-(4-(4-methylthiazol-5-yl)phenyl)ethyl)pyrrolidine-2-carboxamide] | A (“A” indicates maximum degradation ≥75%) | > 100 nM | > 1000 nM | > 50%
6 | Cc1ncsc1-c1ccc([C@H](C)NC(=O)[C@@H]2C[C@@H](O)CN2C(=O)[C@@H](NC(=O)CCN2C[C@H]3CN(CCC(=O)NCc4ccc(CCOc5cc(-c6ccccc6O)nnc5N)cc4)C[C@H]3C2)C(C)(C)C)cc1 [Compound 259, (2S,4R)-1-((2S)-2-(3-(5-(3-((4-(2-((3-amino-6-(2-hydroxyphenyl)pyridazin-4-yl)oxy)ethyl)benzyl)amino)-3-oxopropyl)hexahydropyrrolo[3,4-c]pyrrol-2(1H)-yl)propanamido)-3,3-dimethylbutanoyl)-4-hydroxy-N-((S)-1-(4-(4-methylthiazol-5-yl)phenyl)ethyl)pyrrolidine-2-carboxamide] | C (“C” indicates maximum degradation <50%) | > 1000 nM | > 1000 nM | < 50%
7 | Cc1ncsc1-c1ccc(CNC(=O)[C@@H]2C[C@@H](O)CN2C(=O)[C@@H](NC(=O)CCCCN2CCN(CCC(=O)NCc3ccc(CCOc4cc(-c5ccccc5O)nnc4N)cc3)CC2)C(C)(C)C)cc1 [Compound 260, (2S,4R)-1-((S)-2-(5-(4-(3-((4-(2-((3-amino-6-(2-hydroxyphenyl)pyridazin-4-yl)oxy)ethyl)benzyl)amino)-3-oxopropyl)piperazin-1-yl)pentanamido)-3,3-dimethylbutanoyl)-4-hydroxy-N-(4-(4-methylthiazol-5-yl)benzyl)pyrrolidine-2-carboxamide] | C (“C” indicates maximum degradation <50%) | > 1000 nM | > 1000 nM | < 50%
8 | Cc1ncsc1-c1ccc([C@H](C)NC(=O)[C@@H]2C[C@@H](O)CN2C(=O)[C@@H](NC(=O)CCCCCCCCCCCCCCNCc2ccc(CCOc3cc(-c4ccccc4O)nnc3N)cc2)C(C)(C)C)cc1 [Compound 261, (2S,4R)-1-((S)-2-(15-((4-(2-((3-amino-6-(2-hydroxyphenyl)pyridazin-4-yl)oxy)ethyl)benzyl)amino)pentadecanamido)-3,3-dimethylbutanoyl)-4-hydroxy-N-((S)-1-(4-(4-methylthiazol-5-yl)phenyl)ethyl)pyrrolidine-2-carboxamide] | A (“A” indicates maximum degradation ≥75%) | > 10 nM | > 1000 nM | > 50%
9 | Cc1ncsc1-c1ccc([C@H](C)NC(=O)[C@@H]2C[C@@H](O)CN2C(=O)[C@@H](NC(=O)CCCCN2CCN(CCC(=O)NCc3ccc(CCOc4cc(-c5ccccc5O)nnc4N)cc3)CC2)C(C)(C)C)cc1 [Compound 262, (2S,4R)-1-((S)-2-(5-(4-(3-((4-(2-((3-amino-6-(2-hydroxyphenyl)pyridazin-4-yl)oxy)ethyl)benzyl)amino)-3-oxopropyl)piperazin-1-yl)pentanamido)-3,3-dimethylbutanoyl)-4-hydroxy-N-((S)-1-(4-(4-methylthiazol-5-yl)phenyl)ethyl)pyrrolidine-2-carboxamide] | B (“B” indicates maximum degradation ≥50%) | > 1000 nM | > 1000 nM | < 50%
10 | Cc1ncsc1-c1ccc([C@H](C)NC(=O)[C@@H]2C[C@@H](O)CN2C(=O)[C@@H](NC(=O)CCCCCCCCCCN2CCN(Cc3ccc(CCOc4cc(-c5ccccc5O)nnc4N)cc3)CC2)C(C)(C)C)cc1 [Compound 263] | A (“A” indicates maximum degradation ≥75%) | > 10 nM | > 1000 nM | < 50%
11 | Cc1ncsc1-c1ccc([C@H](C)NC(=O)[C@@H]2C[C@@H](O)CN2C(=O)[C@@H](NC(=O)CCCCCCCCCCN2C[C@@H]3CN(Cc4ccc(CCOc5cc(-c6ccccc6O)nnc5N)cc4)C[C@@H]3C2)C(C)(C)C)cc1 [Compound 264, (2S,4R)-1-((2S)-2-(11-(5-(4-(2-((3-amino-6-(2-hydroxyphenyl)pyridazin-4-yl)oxy)ethyl)benzyl)hexahydropyrrolo[3,4-c]pyrrol-2(1H)-yl)undecanamido)-3,3-dimethylbutanoyl)-4-hydroxy-N-((S)-1-(4-(4-methylthiazol-5-yl)phenyl)ethyl)pyrrolidine-2-carboxamide] | A (“A” indicates maximum degradation ≥75%) | > 10 nM | > 100 nM | > 50%
12 | Cc1ncsc1-c1ccc([C@H](C)NC(=O)[C@@H]2C[C@@H](O)CN2C(=O)[C@@H](NC(=O)CCN2CCN(CCCCC(=O)NCc3ccc(CCOc4cc(-c5ccccc5O)nnc4N)cc3)CC2)C(C)(C)C)cc1 [Compound 265, (2S,4R)-1-((S)-2-(3-(4-(5-((4-(2-((3-amino-6-(2-hydroxyphenyl)pyridazin-4-yl)oxy)ethyl)benzyl)amino)-5-oxopentyl)piperazin-1-yl)propanamido)-3,3-dimethylbutanoyl)-4-hydroxy-N-((S)-1-(4-(4-methylthiazol-5-yl)phenyl)ethyl)pyrrolidine-2-carboxamide] | B (“B” indicates maximum degradation ≥50%) | > 1000 nM | > 1000 nM | < 50%
13 | Cc1ncsc1-c1ccc(CNC(=O)[C@@H]2C[C@@H](O)CN2C(=O)[C@@H](NC(=O)CN2CCC3(CCN(CCC(=O)NCc4ccc(CCOc5cc(-c6ccccc6O)nnc5N)cc4)CC3)CC2)C(C)(C)C)cc1 [Compound 266, (2S,4R)-1-((S)-2-(2-(9-(3-((4-(2-((3-amino-6-(2-hydroxyphenyl)pyridazin-4-yl)oxy)ethyl)benzyl)amino)-3-oxopropyl)-3,9-diazaspiro[5.5]undecan-3-yl)acetamido)-3,3-dimethylbutanoyl)-4-hydroxy-N-(4-(4-methylthiazol-5-yl)benzyl)pyrrolidine-2-carboxamide] | A (“A” indicates maximum degradation ≥75%) | > 1000 nM | > 1000 nM | < 50%
